Test results published in ChEMBL document CHEMBL1201862, “PubChem BioAssay data set” (2004).
Calls of active or inactive are those of the source.

Experiments:
[1] = viability of uninfected HEp-2 cells – cell-based, HTS, cytotoxicity control for RSV inhibitor project, dose response (AID 2410); format: functional; details: human respiratory syncytial virus
[2] = antiviral protection against BTV-induced cell death – arbovirus, BSR cells, confirmation (AID 1250); format: functional;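 note: protection from viral cytopathic effect measured as cell viability by ATP luminescence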
[3] = biological target: T1, Sphingosine 1-phosphate receptor 4 (Homo sapiens, UniProt O95977); test: Fluorescence dose response cell-based high throughput screening assay for antagonists of the Sphingosine 1-Phosphate Receptor 4 (S1P4). [Related pubchem assays: 1524 (Confirmation in triplicates.), 1510 (Primary screen.)]; format: functional
T1 sequence (O95977 whole entry): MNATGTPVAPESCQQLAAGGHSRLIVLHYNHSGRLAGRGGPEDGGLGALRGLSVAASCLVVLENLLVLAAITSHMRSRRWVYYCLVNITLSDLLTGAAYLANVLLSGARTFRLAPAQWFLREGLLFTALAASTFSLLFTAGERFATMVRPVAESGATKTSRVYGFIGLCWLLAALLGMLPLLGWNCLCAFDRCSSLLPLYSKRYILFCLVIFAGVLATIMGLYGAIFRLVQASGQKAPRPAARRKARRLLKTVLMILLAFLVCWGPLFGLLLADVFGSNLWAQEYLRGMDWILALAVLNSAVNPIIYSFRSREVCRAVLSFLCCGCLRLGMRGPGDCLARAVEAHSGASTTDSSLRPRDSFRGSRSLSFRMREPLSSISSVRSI

[4] = test system: INS1; test: INS-1E survival protection against cytokine death – cell-based, luminescence, retest, dose response (AID 449756); format: functional; details: Rattus norvegicus;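 note: cell death triggered by IL-1 beta plus TNF-alpha plus IFN-gamma mixture; protective hits raise ATP signal compared with cytokine alone wells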
[5] = biological target: Sphingosine 1-phosphate receptor 1 (Homo sapiens, UniProt P21453); format: functional;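 note: Tango beta-arrestin reporter U2OS cells stimulated with S1P near its EC80; inhibitor potency meaning antagonism of receptor activation by the natural agonist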
Chain of Sphingosine 1-phosphate receptor 1 (P21453 whole entry): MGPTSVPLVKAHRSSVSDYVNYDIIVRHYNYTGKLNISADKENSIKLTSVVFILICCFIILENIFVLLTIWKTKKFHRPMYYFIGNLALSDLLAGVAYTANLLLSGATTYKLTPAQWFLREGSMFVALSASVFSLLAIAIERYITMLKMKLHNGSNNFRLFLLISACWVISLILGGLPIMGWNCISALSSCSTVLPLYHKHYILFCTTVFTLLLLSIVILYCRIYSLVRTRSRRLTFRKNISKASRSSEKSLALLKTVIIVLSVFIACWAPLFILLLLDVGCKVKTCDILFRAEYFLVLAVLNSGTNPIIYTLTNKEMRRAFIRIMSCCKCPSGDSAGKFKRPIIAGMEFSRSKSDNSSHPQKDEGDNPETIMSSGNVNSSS

[6] = biological target: T1, Sphingosine 1-phosphate receptor 4; test: Late stage fluorescence dose response cell-based screening assay for antagonists of the Sphingosine 1-Phosphate Receptor 4 (S1P4). [Related pubchem assays: 1524 (Confirmation screen (S1P4 antagonists).), 1510 (Primary screen (S1P4 antagonists).), 1853 (Summary AID (S1P4 antagonists).), 1692 (Dose response screen (S1P4 antagonists).)]; format: functional
[7] = biological target: Luciferin 4-monooxygenase (Photinus pyralis, UniProt P08659); test: Counter Screen for Luciferase-based Assay Positives. [Related pubchem assays: 620, 618, 411 ]
Chain of Luciferin 4-monooxygenase (P08659 whole entry, the tested form may be a part): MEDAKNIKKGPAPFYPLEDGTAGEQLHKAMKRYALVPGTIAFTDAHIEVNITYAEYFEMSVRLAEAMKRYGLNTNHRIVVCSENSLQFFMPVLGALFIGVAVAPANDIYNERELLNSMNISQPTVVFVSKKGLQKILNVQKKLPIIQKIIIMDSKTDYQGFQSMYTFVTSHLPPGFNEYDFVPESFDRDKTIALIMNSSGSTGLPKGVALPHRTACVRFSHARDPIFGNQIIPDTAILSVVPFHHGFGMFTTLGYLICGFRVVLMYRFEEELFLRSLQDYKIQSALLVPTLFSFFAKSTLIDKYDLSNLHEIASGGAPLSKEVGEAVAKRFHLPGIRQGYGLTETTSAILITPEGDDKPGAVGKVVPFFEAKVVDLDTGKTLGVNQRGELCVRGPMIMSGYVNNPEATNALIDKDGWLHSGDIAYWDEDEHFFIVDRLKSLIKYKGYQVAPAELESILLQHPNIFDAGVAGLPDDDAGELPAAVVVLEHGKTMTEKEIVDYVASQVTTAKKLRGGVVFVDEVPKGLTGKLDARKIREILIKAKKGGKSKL

[8] = biological target: T2, Oxysterols receptor LXR-beta (Homo sapiens, UniProt P55055); format: functional, cell-based;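 note: Cell-based luminescence dose-response assay of agonist activity at LXR, run as a confirmatory counterscreen to a daf-12 agonist screen; HEK293 cells with Gal4-LXR fusion and GAL4-driven luciferase reporter; agonist potency from rising luciferase signal of a Gal4-LXR reporter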
T2 sequence (P55055 whole entry): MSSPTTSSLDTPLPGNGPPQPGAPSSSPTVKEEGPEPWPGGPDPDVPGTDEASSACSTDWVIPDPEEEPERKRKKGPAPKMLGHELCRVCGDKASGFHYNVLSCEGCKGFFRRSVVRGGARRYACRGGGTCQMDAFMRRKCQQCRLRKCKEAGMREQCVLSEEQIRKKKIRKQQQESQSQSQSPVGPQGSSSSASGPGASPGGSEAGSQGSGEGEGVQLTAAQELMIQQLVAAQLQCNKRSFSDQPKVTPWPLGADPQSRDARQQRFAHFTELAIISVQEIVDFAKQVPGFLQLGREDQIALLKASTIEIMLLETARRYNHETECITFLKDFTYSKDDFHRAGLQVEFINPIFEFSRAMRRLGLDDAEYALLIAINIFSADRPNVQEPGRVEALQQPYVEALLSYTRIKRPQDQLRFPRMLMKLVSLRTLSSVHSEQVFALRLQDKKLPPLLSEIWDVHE

[9] = test system: HT-1080; test: HT1080 cell viability loss – fluorescence readout (AID 620); format: functional, cell-based; details: Homo sapiens
[10] = biological target: T3, Sentrin-specific protease 6 (Homo sapiens, UniProt Q9GZR1); format: functional;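 note: Luminescence-based dose-response confirmatory assay of SENP6 inhibition, following up an ultra-high-throughput screen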
T3 sequence (Q9GZR1 whole entry): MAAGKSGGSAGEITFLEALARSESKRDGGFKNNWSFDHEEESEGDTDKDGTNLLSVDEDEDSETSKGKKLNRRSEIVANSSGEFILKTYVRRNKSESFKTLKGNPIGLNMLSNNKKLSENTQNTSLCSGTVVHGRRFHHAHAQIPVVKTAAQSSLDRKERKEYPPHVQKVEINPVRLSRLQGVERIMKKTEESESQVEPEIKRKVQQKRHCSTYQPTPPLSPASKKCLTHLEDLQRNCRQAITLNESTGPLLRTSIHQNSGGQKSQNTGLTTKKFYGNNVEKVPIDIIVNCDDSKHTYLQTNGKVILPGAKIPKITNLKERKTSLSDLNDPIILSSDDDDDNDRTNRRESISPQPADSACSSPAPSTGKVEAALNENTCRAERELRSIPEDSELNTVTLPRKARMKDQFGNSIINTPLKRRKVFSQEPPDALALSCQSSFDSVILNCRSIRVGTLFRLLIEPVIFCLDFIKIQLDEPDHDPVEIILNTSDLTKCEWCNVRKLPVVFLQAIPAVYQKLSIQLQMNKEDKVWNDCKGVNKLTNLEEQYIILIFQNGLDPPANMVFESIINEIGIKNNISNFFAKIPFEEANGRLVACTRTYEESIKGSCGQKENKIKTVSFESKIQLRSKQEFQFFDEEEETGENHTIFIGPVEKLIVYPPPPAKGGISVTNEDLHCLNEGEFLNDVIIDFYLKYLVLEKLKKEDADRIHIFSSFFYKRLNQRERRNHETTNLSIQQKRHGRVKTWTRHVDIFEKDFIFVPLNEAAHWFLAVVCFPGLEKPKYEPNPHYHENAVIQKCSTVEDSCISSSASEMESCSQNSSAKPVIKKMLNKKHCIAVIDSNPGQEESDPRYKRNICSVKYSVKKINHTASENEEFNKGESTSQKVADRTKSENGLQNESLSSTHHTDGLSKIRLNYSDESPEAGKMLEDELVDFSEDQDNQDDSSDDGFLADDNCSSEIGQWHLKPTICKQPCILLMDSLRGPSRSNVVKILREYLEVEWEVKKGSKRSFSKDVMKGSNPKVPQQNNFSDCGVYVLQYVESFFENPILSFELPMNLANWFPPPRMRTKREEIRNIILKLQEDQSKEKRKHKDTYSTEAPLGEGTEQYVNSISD

[11] = biological target: T4, Sentrin-specific protease 8 (Homo sapiens, UniProt Q96LD8); format: functional;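 note: luminescence read-out of SENP8 inhibition, dose-response confirmation following an ultra-high-throughput screen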
T4 sequence (Q96LD8 whole entry): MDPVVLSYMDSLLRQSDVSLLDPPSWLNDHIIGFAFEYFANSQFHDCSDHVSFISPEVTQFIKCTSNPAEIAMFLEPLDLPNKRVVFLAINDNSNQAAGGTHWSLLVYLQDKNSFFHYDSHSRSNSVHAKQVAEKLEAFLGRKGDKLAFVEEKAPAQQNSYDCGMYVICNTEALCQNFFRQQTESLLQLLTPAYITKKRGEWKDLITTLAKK

[12] = cells
[13] = biological target: T5, Caspase-3 (Homo sapiens, UniProt P42574); format: functional;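 note: Dose-response selectivity test against caspase-3 for candidate inhibitors of sentrin-specific proteases (SENPs)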
T5 sequence (P42574 whole entry): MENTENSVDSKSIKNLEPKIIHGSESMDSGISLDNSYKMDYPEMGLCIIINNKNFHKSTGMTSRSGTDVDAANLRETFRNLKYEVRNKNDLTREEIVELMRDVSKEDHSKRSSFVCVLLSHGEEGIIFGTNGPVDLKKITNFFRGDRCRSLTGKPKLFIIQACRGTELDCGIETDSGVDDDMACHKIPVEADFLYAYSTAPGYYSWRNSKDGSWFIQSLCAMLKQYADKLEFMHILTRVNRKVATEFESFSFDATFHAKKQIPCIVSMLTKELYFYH

[14] = biological target: T6, Sentrin-specific protease 7 (Homo sapiens, UniProt Q9BQF6); format: functional;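 note: Luminescence-based dose-response confirmation of ultra-high-throughput screening hits, measuring inhibition of SENP7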
T6 sequence (Q9BQF6 whole entry): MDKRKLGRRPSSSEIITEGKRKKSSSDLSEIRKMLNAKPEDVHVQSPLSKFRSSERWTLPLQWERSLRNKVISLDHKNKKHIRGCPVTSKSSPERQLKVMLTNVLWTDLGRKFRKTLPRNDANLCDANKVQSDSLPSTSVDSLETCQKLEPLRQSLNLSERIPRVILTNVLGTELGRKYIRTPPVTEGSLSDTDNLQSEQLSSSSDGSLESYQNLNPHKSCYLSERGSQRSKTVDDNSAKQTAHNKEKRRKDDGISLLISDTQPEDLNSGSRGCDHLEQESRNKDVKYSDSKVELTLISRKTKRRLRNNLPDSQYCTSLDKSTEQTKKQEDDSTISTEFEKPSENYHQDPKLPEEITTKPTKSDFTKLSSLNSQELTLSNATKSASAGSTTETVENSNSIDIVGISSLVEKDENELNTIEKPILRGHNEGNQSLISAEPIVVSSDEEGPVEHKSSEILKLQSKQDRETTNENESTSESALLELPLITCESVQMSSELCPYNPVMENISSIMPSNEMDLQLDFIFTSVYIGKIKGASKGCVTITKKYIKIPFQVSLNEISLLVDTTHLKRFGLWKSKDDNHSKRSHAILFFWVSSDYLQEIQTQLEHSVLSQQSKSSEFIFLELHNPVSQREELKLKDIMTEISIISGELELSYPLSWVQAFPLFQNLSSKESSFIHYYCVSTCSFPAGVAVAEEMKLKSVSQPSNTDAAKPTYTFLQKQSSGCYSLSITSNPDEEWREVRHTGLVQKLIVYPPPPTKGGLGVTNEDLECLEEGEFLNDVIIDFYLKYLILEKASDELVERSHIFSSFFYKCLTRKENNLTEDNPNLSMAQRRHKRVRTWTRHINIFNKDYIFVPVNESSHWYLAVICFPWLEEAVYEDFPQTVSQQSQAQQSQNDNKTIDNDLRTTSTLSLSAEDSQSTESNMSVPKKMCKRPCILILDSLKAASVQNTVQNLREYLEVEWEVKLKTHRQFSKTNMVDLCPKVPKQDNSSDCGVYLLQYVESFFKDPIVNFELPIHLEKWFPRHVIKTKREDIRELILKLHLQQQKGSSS

SMILES: COc1ccc(-c2cc(-c3ccc(OC)c(OC)c3)[nH]n2)c(O)c1
- CC50 [1]: 46.3 µM (active)
- IC50 [2]: 45.6 µM (active)

SMILES: CCOC(=O)C(=Cc1ccc(Br)cc1)C(=O)OCC
- IC50 [3]: 0.419 µM (active)
- AC50 [4]: 25 µM (active)
- IC50 [5]: 9.77 µM (active)
- IC50 [6]: 0.887 µM (active)

SMILES: COc1cc([N+](=O)[O-])ccc1N/C=C/C(=O)c1cccs1
- EC50 [7]: 4.17 µM (active)
- EC50 [8]: > 67.5 µM (inactive)
- EC50 [9]: > 50 µM (not active)
- IC50 [10]: 1.15 µM (active)
- IC50 [11]: 2.62 µM (active)
- EC50 [12]: > 67.5 µM (inactive)
- IC50 [13]: 1.53 µM (active)
- IC50 [14]: 0.863 µM (active)
